Laboratory results taken from patent US10131663B2, “Chemical compounds” (AstraZeneca AB, priority 2016, dated 2018).
In brackets after ≈: the same amount, converted by molar mass.

What was measured:
[1] = biological target: recombinant human Estrogen Receptor alpha ligand binding domain (ER alpha-LBD (GST)) (Homo sapiens (Human), UniProt P03372); assay: ERα binding assay (LanthaScreen TR-FRET competition); settings: TR-FRET, displacement of Fluormone ES2
Protocol: The ability of compounds to bind to isolated Estrogen Receptor Alpha Ligand binding domain (ER alpha-LBD (GST)) was assessed in competition assays using a LanthaScreen™ Time-Resolved Fluorescence Resonance Energy Transfer (TR-FRET) detection end-point. […] The assay principle is that ER alpha-LBD (GST) is added to a fluorescent ligand to form a receptor/fluorophore complex. A terbium-labelled anti-GST antibody (Product code PV3551) is used to indirectly label the receptor by binding to its GST tag, and competitive binding is detected by a test compound's ability to displace the fluorescent ligand, resulting in a loss of TR-FRET signal between the Tb-anti-GST antibody and the tracer. The assay was performed as follows with all reagent additions carried out using the Beckman Coulter BioRAPTR FRD microfluidic workstation: • 1. Acoustic dispense 120 nL of the test compound into a black low volume 384 well assay plates. • 2. Prepare 1×ER alpha-LBD/Tb-antiGST Ab in ES2 screening buffer and incubate for 15 minutes. • 3. Dispense 6 μL of the 1×[…]/Tb-anti-GST Ab reagent into each well of the assay plate followed by 6 μL of Fluorophore reagent into each well of the assay plate • 4. Cover the assay plate to protect the reagents from light and evaporation, and incubate at room temperature for 4 hours. • 5.
TR-FRET dose response data obtained with each compound was exported into a suitable software package (such as Origin or Genedata) to perform curve fitting analysis. Competitive ER alpha binding was expressed as an IC50 value.

[2] = biological target: Estrogen Receptor (ERα) in MCF-7 cells (Homo sapiens (Human), UniProt P03372); assay: MCF-7 ER down-regulation assay (immuno-fluorescence); type: cell-based
Protocol: The Echo uses acoustic technology to perform direct microplate-to-microplate transfers of DMSO compound solutions to assay plates. […] Cells were fixed at room temperature for 20 mins before being washed two times with 250 μL PBS/Proclin (PBS with a Biocide preservative) using a BioTek platewasher, 40 μL of PBS/Proclin was then added to all wells and the plates stored at 4° C. The fixing method described above was carried out on the Integrated Echo 2 workcell. Immunostaining was performed using an automated AutoElisa workcell. […] The plates were incubated overnight at 4° C. […] The mean total intensity was normalized for cell number giving the total intensity per cell. The data was exported into a suitable software package (such as Origin) to perform curve fitting analysis.

[3] = log D (shake flask, 1-octanol/aqueous buffer); type: physicochemical
Source text: The lipophilicity of a drug is an important physical property which may influence many biological and metabolic properties of a compound, for example the absorption, distribution, metabolism, excretion and toxicity profiles of a compound. The distribution coefficient between 1-octanol and aqueous buffer, Log DO/W, at pH 7.4, is the most commonly used measurement of the lipophilicity of a compound. The current method for measurement of Log DO/W is based on the traditional shake flask technique, but with the modification of measuring compounds in mixtures of ten at a time using UPLC with quantitative mass spectrometry (MS) as a method to measure the relative octanol and aqueous concentrations. […] An additional QC sample Caffeine, with low Log D, are used and randomly placed in all runs. The method has been thoroughly validated against the previous shake flask methodologies.

[4] = Thermodynamic solubility (shake-flask); type: physicochemical; settings: aqueous phosphate buffer pH 7.4, 24 hours
Protocol: The thermodynamic solubility of a research compound is measured under standard conditions. It is a shake-flask approach that uses 10 mM DMSO solutions which are supplied from the Compound Managements liquid store and is a high throughput method. The dried compounds are equilibrated in an aqueous phosphate buffer (pH 7.4) for 24 hours at 25° C., the portion with the dissolved compound is then separated from the remains. The solutions are analyzed and quantified using UPLC/MS/MS, QC-samples are incorporated in each assay-run to ensure the quality of the assay.

[5] = Human plasma protein binding (equilibrium dialysis); type: in vitro ADME; settings: dialysis 18 hours
Protocol: The automated equilibrium dialysis assay in human plasma uses the RED (Rapid Equilibrium Dialysis) Device and sample handling. The assay generally runs over two to three days including delivery of results. After dialysis for 18 hours, plasma and buffer samples are prepared for analysis by liquid chromatography and mass spectrometry. Samples are generally tested in singlicates and quantified by LC/MSMS by using a 7-point calibration curve in plasma. The compounds are pooled together in plasma pools up to 10 compounds. Three reference compounds are used in each run, Propranolol, Metoprolol and Warfarin. Warfarin is used as a control in each pool and Propranolol and Metoprolol are placed randomly in each run. An in-house Excel macro is used for preparation of files for the robot and the mass spectrometer and is also used for the calculations of fraction unbound (fu %) in plasma.

[6] = pH 7.4, 1-octanol/aqueous buffer
[7] = aqueous phosphate buffer, 25 °C, pH 7.4, aqueous buffer, thermodynamic from solid
[8] = 1-octanol/aqueous buffer, pH 7.4, pH 7.4, 1-octanol/aqueous buffer

recombinant human Estrogen Receptor alpha ligand binding domain (ER alpha-LBD (GST)), sequence (P03372 307-554): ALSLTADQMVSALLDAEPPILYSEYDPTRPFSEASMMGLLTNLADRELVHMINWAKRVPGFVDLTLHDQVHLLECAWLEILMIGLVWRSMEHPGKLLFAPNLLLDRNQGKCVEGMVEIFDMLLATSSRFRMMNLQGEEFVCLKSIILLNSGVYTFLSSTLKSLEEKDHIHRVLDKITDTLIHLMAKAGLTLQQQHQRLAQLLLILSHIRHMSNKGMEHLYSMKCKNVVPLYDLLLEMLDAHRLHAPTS
Estrogen Receptor (ERα) in MCF-7 cells, sequence (P03372 whole entry): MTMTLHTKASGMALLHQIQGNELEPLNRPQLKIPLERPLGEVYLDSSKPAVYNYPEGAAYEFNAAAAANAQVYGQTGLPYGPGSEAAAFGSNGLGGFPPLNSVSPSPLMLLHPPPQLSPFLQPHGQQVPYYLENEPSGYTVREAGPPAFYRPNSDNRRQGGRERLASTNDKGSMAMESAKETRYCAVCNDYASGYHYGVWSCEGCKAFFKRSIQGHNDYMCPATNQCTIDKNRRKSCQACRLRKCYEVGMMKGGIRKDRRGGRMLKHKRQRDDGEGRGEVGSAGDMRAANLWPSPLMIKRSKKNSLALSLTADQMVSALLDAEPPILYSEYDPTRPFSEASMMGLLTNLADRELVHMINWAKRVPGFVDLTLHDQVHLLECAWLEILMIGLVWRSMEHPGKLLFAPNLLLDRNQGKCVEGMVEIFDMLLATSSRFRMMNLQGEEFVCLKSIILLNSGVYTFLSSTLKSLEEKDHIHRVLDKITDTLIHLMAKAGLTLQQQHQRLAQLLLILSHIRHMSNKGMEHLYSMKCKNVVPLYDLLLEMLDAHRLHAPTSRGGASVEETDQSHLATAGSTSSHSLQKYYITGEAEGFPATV

Structure (SMILES)	solubility at 24 h [4, 7] [µM]	Human plasma protein binding (% free) [5] [% free]	logD [3, 8]	further results
C[C@@H]1Cc2c(ccc3[nH]ncc23)[C@@H](c2c(F)cc(NC3CN(CCCF)C3)cc2F)N1CC(C)(F)CO (single isomer, unassigned) [Example 24]	–	–	–	IC50 [1]: 10 nM; DC50 ([2]; read-out: ER down regulation IC50 value): 0.21 nM
C[C@@H]1Cc2c(ccc3[nH]ncc23)[C@@H](c2ncc(NC3CN(CCCF)C3)cc2F)N1CC(F)(F)CF [Example 71, 5-fluoro-N-(1-(3-fluoropropyl)azetidin-3-yl)-6-((6S,8R)-8-methyl-7-(2,2,3-trifluoropropyl)-6,7,8,9-tetrahydro-3H-pyrazolo[4,3-f]isoquinolin-6-yl)pyridin-3-amine]	666 (≈ 339 µg/mL)	–	–	logD [3, 6]: 3.2
COC[C@](C)(F)CN1[C@H](c2ccc(OC3CN(CCCF)C3)cc2OC)c2ccc3[nH]ncc3c2C[C@H]1C (single isomer, unassigned) [Example 13]	–	6.4	–	LogD pH 7.4 [3, 6]: 4; solubility at 24 h ([4]; 25° C.): 78 µM (≈ 41.2 µg/mL)
C[C@@H]1Cc2c(ccc3[nH]ncc23)[C@@H](c2ccc(NC3CN(CCCF)C3)nc2)N1CC1(F)CC1 [Example 54, 5-((6S,8R)-7-((1-fluorocyclopropyl)methyl)-8-methyl-6,7,8,9-tetrahydro-3H-pyrazolo[4,3-f]isoquinolin-6-yl)-N-(1-(3-fluoropropyl)azetidin-3-yl)pyridin-2-amine]	> 1000	57	1.4	–
COC[C@](C)(F)CN1[C@H](c2ccc(OC3CN(CCCF)C3)cc2OC)c2ccc3[nH]ncc3c2C[C@H]1C (single isomer, unassigned) [Example 12]	77 (≈ 40.7 µg/mL)	2.7	3.9	–
COc1cc(NC2CN(CCCF)C2)cnc1[C@@H]1c2ccc3[nH]ncc3c2C[C@@H](C)N1CC(F)(F)F [Example 37, N-(1-(3-fluoropropyl)azetidin-3-yl)-5-methoxy-6-((6S,8R)-8-methyl-7-(2,2,2-trifluoroethyl)-6,7,8,9-tetrahydro-3H-pyrazolo[4,3-f]isoquinolin-6-yl)pyridin-3-amine]	961 (≈ 487 µg/mL)	25	2.6	–
C[C@@H]1Cc2c(ccc3[nH]ncc23)[C@@H](c2ccc(N(C)C3CN(CCCF)C3)cn2)N1CC(F)F [Example 43, 6-((6S,8R)-7-(2,2-difluoroethyl)-8-methyl-6,7,8,9-tetrahydro-3H-pyrazolo[4,3-f]isoquinolin-6-yl)-N-(1-(3-fluoropropyl)azetidin-3-yl)-N-methylpyridin-3-amine]	–	–	–	IC50 [1]: 4.1 nM; IC50 [2]: 0.25 nM
COc1cc(OC2CN(CCCF)C2)ccc1[C@@H]1c2ccc3[nH]ncc3c2C[C@@H](C)N1CC(F)F [Example 22, (6S,8R)-7-(2,2-difluoroethyl)-6-(4-((1-(3-fluoropropyl)azetidin-3-yl)oxy)-2-methoxyphenyl)-8-methyl-6,7,8,9-tetrahydro-3H-pyrazolo[4,3-f]isoquinoline]	70 (≈ 34.2 µg/mL)	4.6	4	IC50 [1]: 5.7 nM; IC50 [2]: 0.062 nM
CC(F)CN1[C@H](c2ccc(NC3CN(CCCF)C3)cn2)c2ccc3[nH]ncc3c2C[C@H]1C (single isomer, unassigned) [Example 65]	790 (≈ 359 µg/mL)	–	2.4	–
CC1(C)Cc2c(ccc3[nH]ncc23)[C@@H](c2ccc(NC3CN(CCCF)C3)cn2)N1CC(F)(F)F [Example 72, (S)-6-(8,8-dimethyl-7-(2,2,2-trifluoroethyl)-6,7,8,9-tetrahydro-3H-pyrazolo[4,3-f]isoquinolin-6-yl)-N-(1-(3-fluoropropyl)azetidin-3-yl)pyridin-3-amine]	738 (≈ 362 µg/mL)	14	–	logD [3, 6]: 3.3
C[C@@H]1Cc2c(ccc3[nH]ncc23)[C@@H](c2ccc(NC3CN(CCCF)C3)cn2)N1CC(C)(C)F [Example 63, 6-((6S,8R)-7-(2-fluoro-2-methylpropyl)-8-methyl-6,7,8,9-tetrahydro-3H-pyrazolo[4,3-f]isoquinolin-6-yl)-N-(1-(3-fluoropropyl)azetidin-3-yl)pyridin-3-amine]	870 (≈ 408 µg/mL)	10	–	logD [3, 6]: 3.2
COC[C@](C)(F)CN1[C@H](c2ccc(NC3CN(CCCF)C3)cc2OC)c2ccc3[nH]ncc3c2C[C@H]1C (single isomer, unassigned) [Example 14]	897 (≈ 473 µg/mL)	16	2.6	–
FCCCN1CC(Nc2ccc([C@@H]3c4ccc5[nH]ncc5c4C[C@@H](C(F)F)N3CC(F)F)nc2)C1 [Example 51, 6-((6S,8S)-7-(2,2-difluoroethyl)-8-(difluoromethyl)-6,7,8,9-tetrahydro-3H-pyrazolo[4,3-f]isoquinolin-6-yl)-N-(1-(3-fluoropropyl)azetidin-3-yl)pyridin-3-amine]	> 1000	28	–	logD [3, 6]: 2.7
COc1cc(NC2CN(CCCF)C2)ccc1[C@@H]1c2ccc3[nH]ncc3c2C[C@@H](C)N1CC(C)F (single isomer, unassigned) [Example 67]	914 (≈ 442 µg/mL)	19	2.7	–
C[C@@H]1Cc2c(ccc3[nH]ncc23)[C@@H](c2ccc(NC3CN(CCCF)C3)cn2)N1CC(C)(F)F [Example 70, 6-((6S,8R)-7-(2,2-difluoropropyl)-8-methyl-6,7,8,9-tetrahydro-3H-pyrazolo[4,3-f]isoquinolin-6-yl)-N-(1-(3-fluoropropyl)azetidin-3-yl)pyridin-3-amine]	857 (≈ 405 µg/mL)	24	–	logD [3, 6]: 2.9
CC(F)CN1[C@H](c2ccc(NC3CN(CCCF)C3)cn2)c2ccc3[nH]ncc3c2C[C@H]1C (single isomer, unassigned) [Example 66]	–	–	–	LogD pH 7.4 [3, 6]: 2.3; solubility at 24 h ([4]; 25° C.): 931 µM (≈ 423 µg/mL)
COC[C@](C)(F)CN1[C@H](c2ccc(NC3CN(CCCF)C3)cc2OC)c2ccc3[nH]ncc3c2C[C@H]1C (single isomer, unassigned) [Example 15]	–	34	–	LogD pH 7.4 [3, 6]: 2.5; solubility at 24 h ([4]; 25° C.): 821 µM (≈ 433 µg/mL)
COc1cc(NC2CN(CCCF)C2)ccc1[C@@H]1c2ccc3[nH]ncc3c2C[C@@H](C)N1CC(C)F (single isomer, unassigned) [Example 68]	–	37	–	LogD pH 7.4 [3, 6]: 2.4; solubility at 24 h ([4]; 25° C.): 561 µM (≈ 271 µg/mL)
COCC(C)(F)CN1[C@H](c2ccc(NC3CN(CCCF)C3)cc2OC)c2ccc3[nH]ncc3c2C[C@H]1C (stereo partly drawn) [Example 4, N-(4-((6S,8R)-7-(2-fluoro-3-methoxy-2-methylpropyl)-8-methyl-6,7,8,9-tetrahydro-3H-pyrazolo[4,3-f]isoquinolin-6-yl)-3-methoxyphenyl)-1-(3-fluoropropyl)azetidin-3-amine]	991 (≈ 523 µg/mL)	21	2.7	–
